What all share (test): microbe, parasite or virus in culture
Assay [1] has as its system Pseudotyped HCV GT1a particles (HCVpp), entry into Huh7-high CD81 cells. The format is cell-based, HCV GT1a H77 strain. The note with it: Hepatitis C virus, 72 h, read-out: HCVpp GT-1a (EC50, μM).
Assay [2] relates to Pseudotyped HCV GT1b particles (HCVpp), entry into Huh7-high CD81 cells. The format is cell-based, HCV GT1b Con1 strain. The note with it: Hepatitis C virus, GT1B, 72 h, read-out: HCVpp GT-1b (EC50, μM).
Assay [3] relates to pseudotyped VSV G particles (VSVpp) in Huh7-high CD81 cells. It is filed as cell-based, vesicular stomatitis virus. As to conditions: Vesicular stomatitis virus, 72 h, read-out: VSVpp (EC50, μM).

The results in this text go back to patent publication US9693997B2, “Antiviral compounds” (priority 2013, dated 2017).

A value given as a limit tells only on which side of the number the result lay.

For `Nc1nc(Nc2ccc(-c3ccc(NC(=O)CCCC[C@@H]4SC[C@@H]5NC(=O)N[C@@H]54)cc3)cc2)n[nH]1` (stereo in doubt) [Compound 54, 5-((3aS,4S,6aR)-2-Oxo-hexaneahydro-thieno[3,4-d]imidazol-4-yl)-pentanoic acid [4′-(5-amino-1H-[1,2,4]triazol-3-ylamino)-biphenyl-4-yl]-amide], the EC50 in assay [1] is 5.73 µM; in assay [2], 10 µM; in assay [3], over 10 µM.
